According to PubChem BioAssay AID330 (DTP/NCI, 2004):
“And” between values parts separate entries of the source, which are not always exact repeats. Identical values can stand only once. Inconclusive results and toxic doses are left out. Rule for the calls: active = survival T/C of 150% or more; inactive = T/C below 125% in these data.

System: P388 leukemia ip, CD2F1 mice, survival T/C
Experiment: NCI In Vivo Anticancer Drug Screen. Data for tumor model P388 Leukemia (intraperitoneal) in CD2F1 (CDF1) mice
Details: endpoint: median survival time, higher = longer survival
Procedure, shortened: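 Mice carrying the transplanted tumor received test compound or vehicle. Survival was recorded in each group, and the value is the treated-group measurement divided by that of the vehicle-treated control group.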

[1] = dose: 60.0 mg/kg/injection, schedule: Q01DX005 (ip), vehicle: saline with Tween-80
[2] = dose: 120.0 mg/kg/injection, schedule: Q01DX005 (ip), vehicle: saline with Tween-80
[3] = dose: 240.0 mg/kg/injection, schedule: Q01DX005 (ip), vehicle: saline with Tween-80
[4] = dose: 50.0 mg/kg/injection, schedule: Q01DX005 (ip), vehicle: saline with Tween-80
[5] = dose: 100.0 mg/kg/injection, schedule: Q01DX005 (ip), vehicle: saline with Tween-80
[6] = dose: 200.0 mg/kg/injection, schedule: Q01DX005 (ip), vehicle: saline with Tween-80
[7] = dose: 12.5 mg/kg/injection, schedule: Q01DX009 (ip), vehicle: saline
[8] = dose: 25.0 mg/kg/injection, schedule: Q01DX009 (ip), vehicle: saline
[9] = dose: 50.0 mg/kg/injection, schedule: Q01DX009 (ip), vehicle: saline
[10] = dose: 100.0 mg/kg/injection, schedule: Q01DX009 (ip), vehicle: saline
[11] = dose: 200.0 mg/kg/injection, schedule: Q01DX009 (ip), vehicle: saline
[12] = dose: 25.0 mg/kg/injection, schedule: Q01DX009 (ip), vehicle: saline with Tween-80
[13] = dose: 50.0 mg/kg/injection, schedule: Q01DX005 (ip), vehicle: Klucel (hydroxypropylcellulose) (HPC)
[14] = dose: 50.0 mg/kg/injection, schedule: Q01DX009 (ip), vehicle: saline with Tween-80
[15] = dose: 100.0 mg/kg/injection, schedule: Q01DX009 (ip), vehicle: saline with Tween-80

Measured: T/C

CCCCCCCCCCCC[C@@H](O)[C@H]1CC[C@H]([C@H](O)CCCC[C@H](O)CCCCC[C@@H](O)CC2=C[C@H](C)OC2=O)O1
inactive: dose: 0.75 mg/kg/injection, schedule: Q01DX009 (ip), vehicle: other 113 % of control | dose: 1.5 mg/kg/injection, schedule: Q01DX009 (ip), vehicle: other 105 % of control

COc1cccc(-c2nc(SC)nc(Cl)c2C#N)c1
inactive: dose: 15.0 mg/kg/injection, schedule: Q01DX005 (ip), vehicle: saline with Tween-80 96 % of control | dose: 30.0 mg/kg/injection, schedule: Q01DX005 (ip), vehicle: saline with Tween-80 86 % of control | [1] 108 % of control and 93 % of control | [2] 113 % of control

[Cl][Pt+2][Cl].[NH-]CC([NH-])CN
inactive: dose: 6.25 mg/kg/injection, schedule: Q04DX003 (ip), vehicle: saline 101 % of control | dose: 12.5 mg/kg/injection, schedule: Q04DX003 (ip), vehicle: saline 111 % of control | dose: 25.0 mg/kg/injection, schedule: Q04DX003 (ip), vehicle: saline 107 % of control

CCN(CC)CCS(=O)Cc1ccccc1 (configuration not stated)
inactive: [1] 100 % of control | [2] 93 % of control | [3] 102 % of control

CC1(C)OC2OCC(N=[N+]=[N-])C(O)C2O1 (configuration not stated)
inactive: [4] 113 % of control | [5] 101 % of control | [6] 92 % of control

CCCC(O)C(NC(=O)CCl)C(=O)O (configuration not stated)
inactive: [7] 105 % of control and 97 % of control | [8] 100 % of control | [9] 104 % of control and 88 % of control | [10] 91 % of control | [11] 86 % of control

CC1(C)CC(OC(=S)S)CC(C)(C)N1O
inactive: dose: 100.0 mg/kg/injection, schedule: Q04DX002 (ip), vehicle: saline 100 % of control | dose: 200.0 mg/kg/injection, schedule: Q04DX002 (ip), vehicle: saline 98 % of control | dose: 400.0 mg/kg/injection, schedule: Q04DX002 (ip), vehicle: saline 100 % of control

CCCOP(=O)(CCl)OCCC
inactive: [10] 90 % of control | [11] 95 % of control | dose: 400.0 mg/kg/injection, schedule: Q01DX009 (ip), vehicle: saline 109 % of control

C=C(C)C(=NC(C)(C)C)N(C(C)C)C(C)C
inactive: dose: 12.5 mg/kg/injection, schedule: Q01DX005 (ip), vehicle: Klucel (hydroxypropylcellulose) (HPC) 102 % of control | dose: 12.5 mg/kg/injection, schedule: Q01DX009 (ip), vehicle: saline with Tween-80 89 % of control | [7] 102 % of control | dose: 25.0 mg/kg/injection, schedule: Q01DX005 (ip), vehicle: Klucel (hydroxypropylcellulose) (HPC) 96 % of control | [12] 97 % of control | [8] 101 % of control | [13] 98 % of control | [14] 100 % of control and 120 % of control | [15] 108 % of control

CCCCCCN(CCCCCC)c1nc(Cl)nc(NCC)n1
inactive: [4] 111 % of control | [5] 103 % of control | [6] 103 % of control

CC(OCc1ccccc1)C(NC(=O)OC(C)(C)C)C(=O)ON1C(=O)CCC1=O (configuration not stated)
inactive: [13] 109 % of control | dose: 100.0 mg/kg/injection, schedule: Q01DX005 (ip), vehicle: Klucel (hydroxypropylcellulose) (HPC) 105 % of control | dose: 200.0 mg/kg/injection, schedule: Q01DX005 (ip), vehicle: Klucel (hydroxypropylcellulose) (HPC) 96 % of control

CC[N]1c2cc(C(C)(C)C)cc(C(C)(C)C)c2[O][Sb]1([c]1ccccc1)([c]1ccccc1)[c]1ccccc1
inactive: [14] 98 % of control | [15] 100 % of control | dose: 200.0 mg/kg/injection, schedule: Q01DX009 (ip), vehicle: saline with Tween-80 98 % of control

O=C(Nc1ccc(Cl)cc1)Nc1nnc(-c2ccc(-c3nnc(NC(=O)Nc4ccc(Cl)cc4)o3)cc2)o1
inactive: [1] 104 % of control | [2] 100 % of control | [3] 98 % of control

CC(N)=NC(C)C
inactive: [9] 101 % of control | [10] 101 % of control | [11] 99 % of control

CC12C(=O)C=CCC1=CCC1C2CCC2(O)C(=O)OC3(C)C4CC5(C)C(COC16OC23C5C6=O)C(=O)O4 (configuration not stated)
inactive: [12] 96 % of control | [14] 110 % of control | [15] 120 % of control | dose: 150.0 mg/kg/injection, schedule: Q01DX009 (ip), vehicle: Klucel (hydroxypropylcellulose) (HPC) 121 % of control

COc1cccc2c1C(=O)OC2=O
inactive: dose: 12.5 mg/kg/injection, schedule: Q01DX009 (ip), vehicle: Klucel (hydroxypropylcellulose) (HPC) 105 % of control | dose: 25.0 mg/kg/injection, schedule: Q01DX009 (ip), vehicle: Klucel (hydroxypropylcellulose) (HPC) 105 % of control | dose: 50.0 mg/kg/injection, schedule: Q01DX009 (ip), vehicle: Klucel (hydroxypropylcellulose) (HPC) 112 % of control | dose: 100.0 mg/kg/injection, schedule: Q01DX009 (ip), vehicle: Klucel (hydroxypropylcellulose) (HPC) 97 % of control | dose: 200.0 mg/kg/injection, schedule: Q01DX009 (ip), vehicle: Klucel (hydroxypropylcellulose) (HPC) 96 % of control

O=C1c2cccc3c([N+](=O)[O-])ccc(c23)C(=O)N1NCCO
inactive: dose: 12.5 mg/kg/injection, schedule: Q01DX005 (ip), vehicle: saline with Tween-80 108 % of control | dose: 25.0 mg/kg/injection, schedule: Q01DX005 (ip), vehicle: saline with Tween-80 116 % of control | [4] 111 % of control and 116 % of control | [5] 114 % of control

c1ccc2c3c(ccc2c1)OCCOc1ccc2ccccc2c1-3
inactive: dose: 100.0 mg/kg/injection, schedule: Q04DX002 (ip), vehicle: saline with Tween-80 99 % of control | dose: 200.0 mg/kg/injection, schedule: Q04DX002 (ip), vehicle: saline with Tween-80 91 % of control | dose: 400.0 mg/kg/injection, schedule: Q04DX002 (ip), vehicle: saline with Tween-80 90 % of control

CCC(C)C[c-]1[c-][c-][c-][c-]1.[Cl][Zr][Cl].[c-]1[c-][c-][cH-][c-]1 (configuration not stated)
inactive: dose: 6.25 mg/kg/injection, schedule: Q04DX002 (ip), vehicle: saline 102 % of control | dose: 12.5 mg/kg/injection, schedule: Q01DX001 (ip), vehicle: saline with Tween-80 100 % of control | dose: 12.5 mg/kg/injection, schedule: Q04DX002 (ip), vehicle: saline 106 % of control | dose: 25.0 mg/kg/injection, schedule: Q01DX001 (ip), vehicle: saline with Tween-80 98 % of control | dose: 25.0 mg/kg/injection, schedule: Q04DX002 (ip), vehicle: saline 100 % of control | dose: 50.0 mg/kg/injection, schedule: Q01DX001 (ip), vehicle: saline with Tween-80 97 % of control

COc1cc([C@@H]2OC[C@@H]3C(c4cc(OC)c5c(c4)OCO5)OC[C@@H]32)cc(OC)c1OC (some centres not stated)
inactive: dose: 5.0 mg/kg/injection, schedule: Q01DX009 (ip), vehicle: saline + Tween-80 + alcohol 102 % of control | dose: 10.0 mg/kg/injection, schedule: Q01DX009 (ip), vehicle: saline + Tween-80 + alcohol 101 % of control | dose: 20.0 mg/kg/injection, schedule: Q01DX009 (ip), vehicle: saline + Tween-80 + alcohol 105 % of control | dose: 40.0 mg/kg/injection, schedule: Q01DX009 (ip), vehicle: saline + Tween-80 + alcohol 105 % of control

O=S(=O)(O)c1ccc(-c2c3nc(c(-c4ccc(S(=O)(=O)O)cc4)c4ccc([nH]4)c(-c4ccc(S(=O)(=O)O)cc4)c4nc(c(-c5ccc(S(=O)(=O)O)cc5)c5ccc2[nH]5)C=C4)C=C3)cc1
inactive: dose: 1.56 mg/kg/injection, schedule: Q01DX009 (ip), vehicle: distilled water + Tween-80 97 % of control | dose: 3.13 mg/kg/injection, schedule: Q01DX009 (ip), vehicle: distilled water + Tween-80 100 % of control | dose: 6.25 mg/kg/injection, schedule: Q01DX009 (ip), vehicle: distilled water + Tween-80 100 % of control | dose: 12.5 mg/kg/injection, schedule: Q01DX009 (ip), vehicle: distilled water + Tween-80 102 % of control and 109 % of control

CCOC(=O)c1ccc(NC(=O)OC2CCCC2)cc1
inactive: [1] 92 % of control | [2] 90 % of control | [3] 89 % of control

COc1ccc2c(c1O)Oc1c(O)ccc3c1C(C2)N(C)CC3 (configuration not stated)
inactive: dose: 2.5 mg/kg/injection, schedule: Q01DX005 (ip), vehicle: Klucel (hydroxypropylcellulose) (HPC) 107 % of control | dose: 5.0 mg/kg/injection, schedule: Q01DX005 (ip), vehicle: Klucel (hydroxypropylcellulose) (HPC) 100 % of control | dose: 10.0 mg/kg/injection, schedule: Q01DX005 (ip), vehicle: Klucel (hydroxypropylcellulose) (HPC) 102 % of control | dose: 20.0 mg/kg/injection, schedule: Q01DX005 (ip), vehicle: Klucel (hydroxypropylcellulose) (HPC) 100 % of control
